Data reported in ChEMBL document CHEMBL1909046, “DrugMatrix in vitro pharmacology data”.

What was measured:
[1] = molecular target: T1, Alpha-2A adrenergic receptor (Homo sapiens, UniProt P08913); assay type: cell membranes, Sf9, Membrane; conditions: for Ki: read-out: Ki; on all read-outs here: in other assays of this panel Not Active means under 50% inhibition at 10 µM
T1 sequence (P08913 whole entry): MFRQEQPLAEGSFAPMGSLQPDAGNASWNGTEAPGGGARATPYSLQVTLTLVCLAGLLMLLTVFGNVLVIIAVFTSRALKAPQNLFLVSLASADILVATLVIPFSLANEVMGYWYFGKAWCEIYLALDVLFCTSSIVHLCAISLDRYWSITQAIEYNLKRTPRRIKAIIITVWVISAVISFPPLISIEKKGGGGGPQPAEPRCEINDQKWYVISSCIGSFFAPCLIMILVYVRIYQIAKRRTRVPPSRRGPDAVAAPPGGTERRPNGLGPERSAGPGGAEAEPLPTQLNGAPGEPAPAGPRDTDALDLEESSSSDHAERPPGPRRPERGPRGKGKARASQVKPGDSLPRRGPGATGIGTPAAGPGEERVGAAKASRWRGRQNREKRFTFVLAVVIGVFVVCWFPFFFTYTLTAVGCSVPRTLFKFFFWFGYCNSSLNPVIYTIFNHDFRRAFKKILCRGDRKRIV

[2] = DRUGMATRIX: Interleukin IL-1 radioligand binding (ligand: [125I] interleukin 1beta); assay type: cell membranes, Membrane; conditions: nih3t3; Not Active = under 50% inhibition at 10 µM
[3] = DRUGMATRIX: GABAA, Muscimol, Central radioligand binding (ligand: [3H] Muscimol); assay type: cell membranes, Rattus norvegicus, Wistar, Brain, Membrane; conditions: Not Active = under 50% inhibition at 10 µM
[4] = molecular target: Sigma non-opioid intracellular receptor 1 (Homo sapiens, UniProt Q99720); test: DRUGMATRIX: Sigma1 radioligand binding (ligand: [3H] Haloperidol); assay type: cell membranes, Jurkat, Membrane; conditions: Not Active = under 50% inhibition at 10 µM
[5] = molecular target: T2, Alpha-1B adrenergic receptor (Rattus norvegicus, UniProt P15823); test: DRUGMATRIX: Alpha-1B adrenergic receptor radioligand binding (ligand: prazosin); assay type: cell membranes, Wistar, Liver, Membrane; conditions: Not Active = under 50% inhibition at 10 µM; for Ki: read-out: Ki
T2 sequence (P15823 whole entry): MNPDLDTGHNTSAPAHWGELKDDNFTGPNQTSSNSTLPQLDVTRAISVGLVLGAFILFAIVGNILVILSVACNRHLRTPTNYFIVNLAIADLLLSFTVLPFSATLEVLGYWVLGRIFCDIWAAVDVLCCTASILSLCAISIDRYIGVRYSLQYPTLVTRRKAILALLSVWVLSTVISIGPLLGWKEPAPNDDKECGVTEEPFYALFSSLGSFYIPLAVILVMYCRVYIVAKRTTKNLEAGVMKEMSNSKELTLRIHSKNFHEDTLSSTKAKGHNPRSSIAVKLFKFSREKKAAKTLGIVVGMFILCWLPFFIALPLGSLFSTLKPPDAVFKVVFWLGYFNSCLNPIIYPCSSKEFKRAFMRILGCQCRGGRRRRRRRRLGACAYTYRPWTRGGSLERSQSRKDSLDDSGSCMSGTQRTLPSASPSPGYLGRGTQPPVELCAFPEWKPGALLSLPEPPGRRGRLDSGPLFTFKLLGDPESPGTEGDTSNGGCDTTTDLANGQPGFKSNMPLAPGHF

Progesterone receptor = molecular target: T3, Progesterone receptor (Bos taurus, UniProt Q690N0); test: DRUGMATRIX: Progesterone radioligand binding (ligand: [3H] R-5020); assay type: tissue-based, Uterus; conditions: Not Active = under 50% inhibition at 10 µM
T3 sequence (Q690N0 whole entry): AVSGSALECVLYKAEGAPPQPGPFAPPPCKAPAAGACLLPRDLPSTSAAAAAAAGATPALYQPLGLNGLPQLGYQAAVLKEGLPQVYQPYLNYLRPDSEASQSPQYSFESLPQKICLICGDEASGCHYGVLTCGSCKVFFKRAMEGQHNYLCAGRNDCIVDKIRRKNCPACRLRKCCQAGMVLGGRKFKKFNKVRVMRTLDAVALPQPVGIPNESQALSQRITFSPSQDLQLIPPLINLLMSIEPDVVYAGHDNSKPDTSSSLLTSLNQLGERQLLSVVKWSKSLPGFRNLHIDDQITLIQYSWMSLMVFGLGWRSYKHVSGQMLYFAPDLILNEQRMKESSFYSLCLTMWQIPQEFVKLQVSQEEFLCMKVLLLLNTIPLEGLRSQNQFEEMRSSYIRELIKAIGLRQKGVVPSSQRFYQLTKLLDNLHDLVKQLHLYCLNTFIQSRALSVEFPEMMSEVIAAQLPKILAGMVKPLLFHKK

Sigma non-opioid intracellular receptor 1, sequence (Q99720 whole entry): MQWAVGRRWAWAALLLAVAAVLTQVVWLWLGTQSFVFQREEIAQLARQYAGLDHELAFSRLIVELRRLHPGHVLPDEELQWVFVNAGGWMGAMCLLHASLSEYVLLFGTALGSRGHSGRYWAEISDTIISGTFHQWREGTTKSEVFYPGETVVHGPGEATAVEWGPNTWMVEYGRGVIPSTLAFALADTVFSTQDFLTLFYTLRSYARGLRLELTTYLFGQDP

Structure (SMILES) | IC50 ([1]; sf9) | IC50 [2] | Ki [2] | IC50 [3] | Ki [3] | IC50 ([4]; jurkat) | IC50 [5] | IC50 (Progesterone receptor) | IC50 ([1]; read-out: IC50) [nM] | Ki [1] [nM] | IC50 ([4]; read-out: IC50) [nM] | Ki ([4]; read-out: Ki) [nM] | IC50 ([5]; read-out: IC50) [nM] | Ki [5] [nM] | IC50 (Progesterone receptor; read-out: IC50) [nM] | Ki (Progesterone receptor; read-out: Ki) [nM]
O=C(O)c1cc(-c2ccc(F)cc2F)ccc1O [DIFLUNISAL] | Not Active | Not Active | Not Active | Not Active | Not Active | Not Active | Not Active | Not Active |  |  |  |  |  |  |  | 
CCn1cc(C(=O)O)c(=O)c2cc(F)c(N3CCNC(C)C3)c(F)c21 (stereo unspecified) [LOMEFLOXACIN] | Not Active | Not Active | Not Active | Not Active | Not Active | Not Active | Not Active | Not Active |  |  |  |  |  |  |  | 
CN(C)C(=O)Oc1cccc([N+](C)(C)C)c1.[Br-] [NEOSTIGMINE BROMIDE] | Not Active | Not Active | Not Active | Not Active | Not Active | Not Active | Not Active | Not Active |  |  |  |  |  |  |  | 
CN1CCCC(CN2c3ccccc3Sc3ccccc32)C1 (stereo unspecified) [MEPAZINE] |  | Not Active | Not Active | Not Active | Not Active |  |  | Not Active | 1460 | 546 | 180 | 76 | 61 | 34 |  | 
ClC(Cl)(Cl)Cl [CARBON TETRACHLORIDE] | Not Active | Not Active | Not Active | Not Active | Not Active | Not Active | Not Active | Not Active |  |  |  |  |  |  |  | 
CCN(CC)CCCC(C)Nc1c2ccc(Cl)cc2nc2ccc(OC)cc12 (stereo unspecified) [QUINACRINE] |  | Not Active | Not Active | Not Active | Not Active | Not Active |  | Not Active | 2280 | 855 |  |  | 3410 | 1890 |  | 
CC[C@H]1[C@@H]2C[C@H]3[C@@H]4N(C)c5ccccc5[C@]45C[C@@H]([C@@H]2[C@H]5O)N3[C@@H]1O [AJMALINE] | Not Active | Not Active | Not Active | Not Active | Not Active | Not Active | Not Active | Not Active |  |  |  |  |  |  |  | 
C[C@H]1[C@H](NC(=O)/C(=N\OC(C)(C)C(=O)O)c2csc(N)n2)C(=O)N1S(=O)(=O)O [AZTREONAM] | Not Active | Not Active | Not Active | Not Active | Not Active | Not Active | Not Active | Not Active |  |  |  |  |  |  |  | 
CO/N=C(\C(=O)N[C@@H]1C(=O)N2C(C(=O)O)=C(COC(C)=O)CS[C@H]12)c1csc(N)n1 [CEFOTAXIME] | Not Active | Not Active | Not Active | Not Active | Not Active | Not Active | Not Active | Not Active |  |  |  |  |  |  |  | 
CC(C)c1c(C(=O)Nc2ccccc2)c(-c2ccccc2)c(-c2ccc(F)cc2)n1CC[C@@H](O)C[C@@H](O)CC(=O)O [ATORVASTATIN] | Not Active | Not Active | Not Active | Not Active | Not Active | Not Active | Not Active | Not Active |  |  |  |  |  |  |  | 
CC(C)C[C@H]1C(=O)N2CCC[C@H]2[C@]2(O)O[C@](NC(=O)[C@@H]3C=C4c5cccc6[nH]cc(c56)C[C@H]4N(C)C3)(C(C)C)C(=O)N12 [ERGOCRYPTINE] |  | Not Active | Not Active | Not Active | Not Active | Not Active |  | Not Active | 7.95 | 2.98 |  |  | 14 | 7.94 |  | 
CCN(C(C)=O)c1cccc(-c2ccnc3c(C#N)cnn23)c1 [ZALEPLON] | Not Active | Not Active | Not Active | Not Active | Not Active | Not Active | Not Active | Not Active |  |  |  |  |  |  |  | 
N[C@@H](Cn1ccc(=O)c(O)c1)C(=O)O [L-MIMOSINE] | Not Active | Not Active | Not Active | Not Active | Not Active | Not Active | Not Active | Not Active |  |  |  |  |  |  |  | 
Nc1cc(-c2ccncc2)c[nH]c1=O [INAMRINONE] | Not Active | Not Active | Not Active | Not Active | Not Active | Not Active | Not Active | Not Active |  |  |  |  |  |  |  | 
NC(=O)c1cccc(N)c1 [3-AMINOBENZAMIDE] | Not Active | Not Active | Not Active | Not Active | Not Active | Not Active | Not Active | Not Active |  |  |  |  |  |  |  | 
NC(=O)c1cccnc1 [NIACINAMIDE] | Not Active | Not Active | Not Active | Not Active | Not Active | Not Active | Not Active | Not Active |  |  |  |  |  |  |  | 
CCC1=C(C)CN(C(=O)NCCc2ccc(S(=O)(=O)NC(=O)N[C@H]3CC[C@H](C)CC3)cc2)C1=O [GLIMEPIRIDE] | Not Active | Not Active | Not Active | Not Active | Not Active | Not Active | Not Active | Not Active |  |  |  |  |  |  |  | 
CC(C)NCC(O)c1ccccc1Cl (stereo unspecified) [CLORPRENALINE] | Not Active | Not Active | Not Active | Not Active | Not Active | Not Active | Not Active | Not Active |  |  |  |  |  |  |  | 
CC(=O)OCC(=O)[C@@]12OC(C)(C)O[C@@H]1C[C@H]1[C@@H]3C[C@H](F)C4=CC(=O)C=C[C@]4(C)[C@@]3(F)[C@@H](O)C[C@@]12C [FLUOCINONIDE] | Not Active | Not Active | Not Active | Not Active | Not Active | Not Active | Not Active |  |  |  |  |  |  |  | 22 | 2.9
COc1cccc2c1C(=O)c1c(O)c3c(c(O)c1C2=O)C[C@@](O)(C(C)=O)C[C@@H]3O[C@H]1C[C@H](N)[C@H](O)[C@H](C)O1 [DAUNORUBICIN] | Not Active | Not Active | Not Active | Not Active | Not Active | Not Active | Not Active | Not Active |  |  |  |  |  |  |  | 
COc1ccccc1N | Not Active | Not Active | Not Active | Not Active | Not Active | Not Active | Not Active | Not Active |  |  |  |  |  |  |  | 
CC(O)(P(=O)(O)O)P(=O)(O)O [ETIDRONIC ACID] | Not Active | Not Active | Not Active | Not Active | Not Active | Not Active | Not Active |  |  |  |  |  |  |  |  | 
NCCCNCCSP(=O)(O)O [AMIFOSTINE] | Not Active | Not Active | Not Active | Not Active | Not Active | Not Active | Not Active |  |  |  |  |  |  |  |  | 
CN1CCN(C(c2ccccc2)c2ccccc2)CC1 [CYCLIZINE] |  | Not Active | Not Active | Not Active | Not Active |  |  | Not Active | 1550 | 582 |  |  | 2490 | 1380 |  | 
COc1cc(OC)c(C(=O)CCCN2CCCC2)c(OC)c1 [BUFLOMEDIL] | Not Active | Not Active | Not Active | Not Active | Not Active |  | Not Active | Not Active |  |  |  |  |  |  |  | 
